{"source": "PubChem BioAssay (NCI)", "assay_in_all_cases": "growth of human tumour cells (NCI), 48 h", "key": {"[1]": {"system": "786-0 renal"}, "[2]": {"system": "A549 NSCLC"}, "[3]": {"system": "ACHN renal"}, "[4]": {"system": "BT-549 breast"}, "[5]": {"system": "CAKI-1 renal"}, "[6]": {"system": "CCRF-CEM leukemia"}, "[7]": {"system": "COLO 205 colon"}, "[8]": {"system": "DU-145 prostate"}, "[9]": {"system": "EKVX NSCLC"}, "[10]": {"system": "HCC-2998 colon"}, "[11]": {"system": "HCT-116 colon"}, "[12]": {"system": "HCT-15 colon"}, "[13]": {"system": "HL-60(TB) leukemia"}, "[14]": {"system": "HOP-62 NSCLC"}, "[15]": {"system": "HOP-92 NSCLC"}, "[16]": {"system": "HS 578T breast"}, "[17]": {"system": "HT29 colon"}, "[18]": {"system": "IGROV1 ovarian"}, "[19]": {"system": "K-562 leukemia"}, "[20]": {"system": "KM12 colon"}, "[21]": {"system": "LOX IMVI melanoma"}, "[22]": {"system": "MALME-3M melanoma"}, "[23]": {"system": "MCF7 breast"}, "[24]": {"system": "MDA-MB-231 breast"}, "[25]": {"system": "MDA-MB-435"}, "[26]": {"system": "MDA-N"}, "[27]": {"system": "MOLT-4 leukemia"}, "[28]": {"system": "NCI-H226 lung"}, "[29]": {"system": "NCI-H23 lung"}, "[30]": {"system": "NCI-H460 lung"}, "[31]": {"system": "NCI-H522 lung"}, "[32]": {"system": "NCI/ADR-RES ovarian"}, "[33]": {"system": "OVCAR-3 ovarian"}, "[34]": {"system": "OVCAR-4 ovarian"}, "[35]": {"system": "OVCAR-5 ovarian"}, "[36]": {"system": "OVCAR-8 ovarian"}, "[37]": {"system": "PC-3 prostate"}, "[38]": {"system": "RPMI-8226 leukemia"}, "[39]": {"system": "RXF 393 renal"}, "[40]": {"system": "SF-268 CNS"}, "[41]": {"system": "SF-295 CNS"}, "[42]": {"system": "SF-539 CNS"}, "[43]": {"system": "SK-MEL-2 melanoma"}, "[44]": {"system": "SK-MEL-28 melanoma"}, "[45]": {"system": "SK-MEL-5 melanoma"}, "[46]": {"system": "SK-OV-3 ovarian"}, "[47]": {"system": "SN12C renal"}, "[48]": {"system": "SNB-19 CNS"}, "[49]": {"system": "SNB-75 CNS"}, "[50]": {"system": "SR leukemia"}, "[51]": {"system": "SW-620 colon"}, "[52]": {"system": "T-47D breast"}, "[53]": {"system": "TK-10 renal"}, "[54]": {"system": "U251 CNS"}, "[55]": {"system": "UACC-257 melanoma"}, "[56]": {"system": "UACC-62 melanoma"}, "[57]": {"system": "UO-31 renal"}}, "note": "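Interpolation was linear, between the two tested concentrations surrounding the appropriate level; five concentrations were tested over 48 hours in 96-well plates. At the TGI there is no net growth.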", "data": [{"smiles": "CC(C)=CC[C@]12CCN[C@H]1N(S(=O)(=O)c1ccccc1)c1ccccc12", "values": [{"measurement": "TGI", "setting": "[1]", "result": 32.2, "unit": "µM"}, {"measurement": "TGI", "setting": "[2]", "result": 59.1, "unit": "µM"}, {"measurement": "TGI", "setting": "[3]", "result": 50.7, "unit": "µM"}, {"measurement": "TGI", "setting": "[4]", "result": 33.7, "unit": "µM"}, {"measurement": "TGI", "setting": "[5]", "result": 69.4, "unit": "µM"}, {"measurement": "TGI", "setting": "[6]", "result": "> 100", "unit": "µM"}, {"measurement": "TGI", "setting": "[7]", "result": 41, "unit": "µM"}, {"measurement": "TGI", "setting": "[8]", "result": "> 100", "unit": "µM"}, {"measurement": "TGI", "setting": "[9]", "result": 21.3, "unit": "µM"}, {"measurement": "TGI", "setting": "[10]", "result": 32.1, "unit": "µM"}, {"measurement": "TGI", "setting": "[11]", "result": 27.9, "unit": "µM"}, {"measurement": "TGI", "setting": "[12]", "result": 32.8, "unit": "µM"}, {"measurement": "TGI", "setting": "[13]", "result": 45.6, "unit": "µM"}, {"measurement": "TGI", "setting": "[14]", "result": 29.1, "unit": "µM"}, {"measurement": "TGI", "setting": "[15]", "result": 28.3, "unit": "µM"}, {"measurement": "TGI", "setting": "[16]", "result": 44.5, "unit": "µM"}, {"measurement": "TGI", "setting": "[17]", "result": 39, "unit": "µM"}, {"measurement": "TGI", "setting": "[18]", "result": 30.8, "unit": "µM"}, {"measurement": "TGI", "setting": "[19]", "result": 56.9, "unit": "µM"}, {"measurement": "TGI", "setting": "[20]", "result": 76.3, "unit": "µM"}, {"measurement": "TGI", "setting": "[21]", "result": 31.2, "unit": "µM"}, {"measurement": "TGI", "setting": "[22]", "result": 32.7, "unit": "µM"}, {"measurement": "TGI", "setting": "[23]", "result": 39.8, "unit": "µM"}, {"measurement": "TGI", "setting": "[24]", "result": 58.5, "unit": "µM"}, {"measurement": "TGI", "setting": "[25]", "result": 32.5, "unit": "µM"}, {"measurement": "TGI", "setting": "[26]", "result": 29.1, "unit": "µM"}, {"measurement": "TGI", "setting": "[27]", "result": 75.8, "unit": "µM"}, {"measurement": "TGI", "setting": "[28]", "result": 36.7, "unit": "µM"}, {"measurement": "TGI", "setting": "[29]", "result": "> 100", "unit": "µM"}, {"measurement": "TGI", "setting": "[30]", "result": 29, "unit": "µM"}, {"measurement": "TGI", "setting": "[31]", "result": 30.1, "unit": "µM"}, {"measurement": "TGI", "setting": "[32]", "result": 30.5, "unit": "µM"}, {"measurement": "TGI", "setting": "[33]", "result": 30.6, "unit": "µM"}, {"measurement": "TGI", "setting": "[34]", "result": 42, "unit": "µM"}, {"measurement": "TGI", "setting": "[35]", "result": "> 100", "unit": "µM"}, {"measurement": "TGI", "setting": "[36]", "result": 33.9, "unit": "µM"}, {"measurement": "TGI", "setting": "[37]", "result": 27.4, "unit": "µM"}, {"measurement": "TGI", "setting": "[38]", "result": 45.9, "unit": "µM"}, {"measurement": "TGI", "setting": "[39]", "result": 27.6, "unit": "µM"}, {"measurement": "TGI", "setting": "[40]", "result": 33.3, "unit": "µM"}, {"measurement": "TGI", "setting": "[41]", "result": 34.5, "unit": "µM"}, {"measurement": "TGI", "setting": "[42]", "result": 36.9, "unit": "µM"}, {"measurement": "TGI", "setting": "[43]", "result": 31.6, "unit": "µM"}, {"measurement": "TGI", "setting": "[44]", "result": 31.5, "unit": "µM"}, {"measurement": "TGI", "setting": "[45]", "result": 28.1, "unit": "µM"}, {"measurement": "TGI", "setting": "[46]", "result": 38.9, "unit": "µM"}, {"measurement": "TGI", "setting": "[47]", "result": 26.4, "unit": "µM"}, {"measurement": "TGI", "setting": "[48]", "result": 51.2, "unit": "µM"}, {"measurement": "TGI", "setting": "[49]", "result": 44.5, "unit": "µM"}, {"measurement": "TGI", "setting": "[50]", "result": 51, "unit": "µM"}, {"measurement": "TGI", "setting": "[51]", "result": 36.9, "unit": "µM"}, {"measurement": "TGI", "setting": "[52]", "result": 92.9, "unit": "µM"}, {"measurement": "TGI", "setting": "[53]", "result": "> 100", "unit": "µM"}, {"measurement": "TGI", "setting": "[54]", "result": 30.7, "unit": "µM"}, {"measurement": "TGI", "setting": "[55]", "result": 34.8, "unit": "µM"}, {"measurement": "TGI", "setting": "[56]", "result": 29.2, "unit": "µM"}, {"measurement": "TGI", "setting": "[57]", "result": 33.3, "unit": "µM"}]}]}
